The test addresses human JMJD5 (Homo sapiens, UniProt Q8N371). In words: SPE-MS JMJD5 inhibition assay (hydroxylation of RPS6 128–148 peptide). It is filed as biochemical. The source says:
Synthetic peptides with sequences based on reported human 2OG oxygenase substrates were used in SPE-MS inhibition assays: RPS6, residues 128–148, for JMJD5;[42] HIF-α CODD, residues 558–574, for PHD2;[70] HIF-α CAD, residues 788–822, for FIH;[70] H3_1-15K9me3, histone 3 (H3), residues 1–15 with K9 of H3-bearing three methyl groups at the N^ε-position, K4 of H3 substituted by an alanine residue, and K14 of H3 by an isoleucine residue,[73] for KDM4E; and RPL27A, residues 31–49, for RIOX2 (Mina53).[44] All peptides were prepared as C-terminal amides by GL Biochem (Shanghai) Ltd. A synthetic thioether-linked cyclic peptide, hFX-CP101–119,[48] which was designed based on the reported cellular AspH substrate human coagulation factor X (hFX, residues 101–119; C101 was substituted for a D-alanine residue and C112 for a serine residue),[79] was used as AspH substrate; it was prepared with a C-terminal amide according to literature protocols.[80]
Cosubstrate/cofactor stock solutions [L-ascorbic acid/LAA: 50 mM in MQ-grade water; 2-oxoglutarate/2OG: 10 mM in MQ-grade water; ammonium iron(II) sulfate hexahydrate/FAS/(NH4)2Fe(SO4)2·6H2O: 400 mM in 20 mM HCl diluted to 1 mM in MQ-grade water] were freshly prepared from commercial solids (Sigma-Aldrich) on the day the assays were performed. The JMJD5,[42] PHD2,[70] FIH,[70] KDM4E,[72],[73] RIOX2,[44] and AspH[45] SPE-MS inhibition assays were performed as described in the cited literature, using isolated recombinant human enzymes (His6-thioredoxin-JMJD5,[42] His6-PHD2_181–426,[70] His6-FIH,[70] His6-KDM4E,[72],[73] His6-RIOX2_26–465,[87],[88] and His6-AspH315–758[48],[80]) and synthetic peptide substrates (RPS6_128–148 for JMJD5;[42] HIF-α CODD558–574 for PHD2;[70] HIF-α CAD788–822 for FIH;[70] H3_1–15K9me3 for KDM4E;[73] RPL27A31–49 for RIOX2;[44],[71] and hFX-CP101–119 for AspH;[45],[48] see above). For JMJD5, PHD2, FIH, RIOX2, and AspH, substrate hydroxylation was monitored (+16 Da mass shift), while for the KDM4E substrate, demethylation was monitored (−14 Da mass shift) by SPE-MS.

The mark [1] stands for this setting: Table 1, JMJD5 […], 2OG 2.0 μM, Fe(II) 2.0 μM, LAA 100 μM, RPS6 128–148 2.0 μM, pH 7.5, 20 °C, n = 3, mean ± SD, read-out: IC50 JMJD5.
Where [2] appears, read: isolated recombinant JMJD5, SPE-MS, approximate values, read-out: IC50 for JMJD5 inhibition.
[3] abbreviates: supplementary CSV, read-out: IC50 JMJD5.
The mark [4] stands for this setting: isolated recombinant JMJD5, SPE-MS.

Where “and” joins values, the source holds several entries; their conditions need not be identical. Equal values may be shown once. Read-outs that look alike come from different tables or passages of the source. Where only a bound is given, the exact number is not on record here.

human JMJD5, sequence (Q8N371 whole entry, the tested form may be a part): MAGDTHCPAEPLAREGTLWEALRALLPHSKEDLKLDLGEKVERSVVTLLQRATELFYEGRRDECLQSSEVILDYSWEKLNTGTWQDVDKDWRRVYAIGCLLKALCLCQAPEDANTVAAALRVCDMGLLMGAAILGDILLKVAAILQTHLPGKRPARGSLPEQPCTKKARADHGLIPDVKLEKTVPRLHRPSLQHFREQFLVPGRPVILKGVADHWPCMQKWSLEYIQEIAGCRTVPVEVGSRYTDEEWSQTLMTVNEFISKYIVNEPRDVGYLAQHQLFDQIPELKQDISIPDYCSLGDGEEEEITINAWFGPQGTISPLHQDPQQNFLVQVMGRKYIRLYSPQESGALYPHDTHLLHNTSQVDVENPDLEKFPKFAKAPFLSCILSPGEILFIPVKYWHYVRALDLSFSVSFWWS

For the compound `O=C(O)c1ccnc(C(=O)O)c1Nc1ccccc1[N+](=O)[O-]` [Compound 2], the IC50 is 17.9 ± 2.6 µM under setting [1]; ~17.9 µM and ~16.8 µM under setting [2]; 17.9 ± 2.6 µM under setting [3].

As for `O=C(O)c1ccnc(C(=O)O)c1NCc1ccccc1` [Compound 3], the IC50 is 9.5 ± 2.2 µM under setting [1] and 9.5 ± 2.2 µM under setting [3].

With `O=C(O)c1ccncc1NCc1ccccc1` [Compound 4], the IC50 runs as follows: under setting [1], over 50 µM; under setting [3], over 50 µM. The “JMJD5 inhibition (in words)” value under setting [4] is given as “does not inhibit JMJD5”.

Consider `O=C(O)c1ccnc(C(=O)O)c1NCC1CCCCC1` [Compound 5], for which the IC50 under setting [1] is 25.3 ± 0.5 µM, the IC50 under setting [2] was about 25.3 µM and the IC50 under setting [3] is 25.3 ± 0.5 µM.

As to `COc1ccc(CNc2c(C(=O)O)ccnc2C(=O)O)cc1` [Compound 6], the IC50 by setting is: under setting [1], 5.8 ± 2.9 µM; under setting [3], 5.8 ± 2.9 µM.

On to `O=C(O)c1ccnc(C(=O)O)c1NCc1ccc(C(F)(F)F)cc1` [Compound 7], for which the 50% inhibitory concentration (IC50) runs as follows: under setting [1], 10.4 ± 4.4 µM; under setting [3], 10.4 ± 4.4 µM.

Regarding `CC(Nc1c(C(=O)O)ccnc1C(=O)O)c1ccccc1` (centres unmarked) [Compound 8], the IC50 is 3.1 ± 1.5 µM under setting [1], about 3.1 µM under setting [2] and 3.1 ± 1.5 µM under setting [3]. Also, the “JMJD5 inhibition less efficient than 2,4-PDCA (1)” value (compared with 1) was ~6 fold and ~ 5 fold. Also, where the note is “compared with 3”, the “JMJD5 inhibition more efficient than 3” value is about 3 fold.

As for `CCC(Nc1c(C(=O)O)ccnc1C(=O)O)c1ccccc1` (centres unmarked) [Compound 9], the IC50 is, setting by setting: under setting [1], 7.5 ± 2 µM; under setting [2], about 7.5 µM; under setting [3], 7.5 ± 2 µM.

Take `O=C(O)c1ccnc(C(=O)O)c1NCCc1ccccc1` [Compound 10]: the IC50 is, setting by setting: under setting [1], 19.6 ± 3 µM; under setting [3], 19.6 ± 3 µM.

In the case of `O=C(O)c1ccnc(C(=O)O)c1NCCCc1ccccc1` [Compound 11], the IC50 was 19.7 ± 3 µM under setting [1] and 19.7 ± 3 µM under setting [3].

Consider `O=C(O)c1ccnc(C(=O)O)c1NCCCCc1ccccc1` [Compound 12], for which the IC50 was 20.8 ± 0.2 µM under setting [1] and 20.8 ± 0.2 µM under setting [3].

With `O=C(O)c1ccnc(C(=O)O)c1F` [Compound 13, 3-fluoro-2,4-PDCA], the IC50 under setting [1] is 27.2 ± 2.9 µM and the IC50 under setting [3] came out at 27.2 ± 2.9 µM. Also, the “JMJD5 inhibition (in words)” value under setting [4] is “did not efficiently inhibit JMJD5”.
